This note sets out measurements from patent US10287301B2 (Achillion Pharmaceuticals, Inc., priority 2015, dated 2019).

Where only a bound is given, the exact number is not on record here.

The first assay deals with Human Factor D (Homo sapiens (Human), UniProt P00746). Kind of assay: Human Factor D Assay. The class given is biochemical.
Human Factor D, sequence (P00746 26-253): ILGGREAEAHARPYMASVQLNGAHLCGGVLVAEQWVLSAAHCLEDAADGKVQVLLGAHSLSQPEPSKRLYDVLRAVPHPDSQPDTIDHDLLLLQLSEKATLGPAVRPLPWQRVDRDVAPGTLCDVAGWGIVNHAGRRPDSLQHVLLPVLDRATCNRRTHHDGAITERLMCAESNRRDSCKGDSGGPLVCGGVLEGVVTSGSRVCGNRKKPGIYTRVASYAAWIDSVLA
Conditions: not given
A digest of the protocol:
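IC50 values derive from nonlinear regression of Factor D reaction rates against compound concentration. The enzyme, purified from human serum, is used at 80 nM final with a 5 min room-temperature compound preincubation in 50 mM Tris, 1M NaCl, pH 7.5, before 100 μM Z-L-Lys-SBzl plus 100 μM DTNB are added.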
With `CC(=O)c1cn(CC(=O)N2C[C@H](F)C[C@H]2C(=O)NC2CCCN(c3cc(C)ccc3F)C2=O)c2ccc(-c3ccnnc3)cc12` (stereo partly drawn) [Compound 125, (2S,4R)-1-(2-(3-acetyl-5-(pyridazin-4-yl)-1H-indol-1-yl)acetyl)-4-fluoro-N-(1-(2-fluoro-5-methylphenyl)-2-oxopiperidin-3-yl)pyrrolidine-2-carboxamide], the IC50 is 1000 to 10000 nM.
The same measure, in the same setting: the result for `NC(=O)c1nn(CC(=O)N2C[C@H](F)C[C@H]2C(=O)NCc2ccccn2)c2ccc(-c3ccnnc3)cc12` [Compound 139, 1-(2-((2S,4R)-4-fluoro-2-(pyridin-2-ylmethylcarbamoyl)pyrrolidin-1-yl)-2-oxoethyl)-5-(pyridazin-4-yl)-1H-indazole-3-carboxamide] reads 1000 to 10000 nM; that for `CC(=O)c1cn(CC(=O)N2C[C@H](F)C[C@H]2C(=O)NC2CCCN(c3cnn(C)c3)C2)c2ccc(-c3ccnnc3)cc12` (stereo partly drawn) [Compound 140, (2S,4R)-1-(2-(3-acetyl-5-(pyridazin-4-yl)-1H-indol-1-yl)acetyl)-4-fluoro-N-(1-(1-methyl-1H-pyrazol-4-yl)piperidin-3-yl)pyrrolidine-2-carboxamide], 1000 to 10000 nM.

Still in this assay, the particulars now being: Human Factor D 80 nM, substrate Z-L-Lys-SBzl; read-out: IC50.
As to `CC(=O)Nc1ncc(-c2ccc3c(c2)c(C(C)=O)cn3CC(=O)N2C[C@H](F)C[C@H]2C(=O)Nc2cccc(Br)n2)cn1` [Compound 118, (2S,4R)-1-(2-(5-(2-acetamidopyrimidin-5-yl)-3-acetyl-1H-indol-1-yl)acetyl)-N-(6-bromopyridin-2-yl)-4-fluoropyrrolidine-2-carboxamide], the IC50 was less than 1000 nM.
Still for that read-out and setting: the figure for `CC(=O)c1cn(CC(=O)N2C[C@H](F)C[C@H]2C(=O)Nc2cccc(Br)n2)c2ccc(-c3cccc(Cl)c3)cc12` [Compound 119, (2S,4R)-1-(2-(3-acetyl-5-(3-chlorophenyl)-1H-indol-1-yl)acetyl)-N-(6-bromopyridin-2-yl)-4-fluoropyrrolidine-2-carboxamide] is less than 1000 nM; for `CC(=O)c1cn(CC(=O)N2C[C@H](F)C[C@H]2C(=O)Nc2cccc(Br)n2)c2ccc(-c3ccc(C)nc3)cc12` [Compound 120, (2S,4R)-1-(2-(3-acetyl-5-(6-methylpyridin-3-yl)-1H-indol-1-yl)acetyl)-N-(6-bromopyridin-2-yl)-4-fluoropyrrolidine-2-carboxamide] it is less than 1000 nM; for `CC(=O)c1cn(CC(=O)N2C[C@H](F)C[C@H]2C(=O)Nc2cccc(-c3ccccc3Cl)c2F)c2ccc(-c3cnnc(C)c3)cc12` [Compound 121, (2S,4R)-1-(2-(3-acetyl-5-(6-methylpyridazin-4-yl)-1H-indol-1-yl)acetyl)-N-(2′-chloro-2-fluorobiphenyl-3-yl)-4-fluoropyrrolidine-2-carboxamide] it is less than 1000 nM.
On to `COc1cc(C)cc2c1OCCC2NC(=O)[C@@H]1C[C@@H](F)CN1C(=O)Cn1nc(C(N)=O)c2cc(-c3ccnnc3)ccc21` (stereo partly drawn) [Compound 122, 1-(2-((2S,4R)-4-fluoro-2-(8-methoxy-6-methylchroman-4-ylcarbamoyl)pyrrolidin-1-yl)-2-oxoethyl)-5-(pyridazin-4-yl)-1H-indazole-3-carboxamide], for which the IC50 was greater than 10000 nM.
Consider `COc1cc(C)cc2c1OCCC2NC(=O)[C@@H]1C[C@@H](F)CN1C(=O)Cn1cc(C(C)=O)c2cc(-c3ccnnc3)ccc21` (stereo partly drawn) [Compound 123, (2S,4R)-1-(2-(3-acetyl-5-(pyridazin-4-yl)-1H-indol-1-yl)acetyl)-4-fluoro-N-(8-methoxy-6-methylchroman-4-yl)pyrrolidine-2-carboxamide], for which the IC50 was greater than 10000 nM.
On the same count and under the same terms, the figure for `CC(=O)c1cn(CC(=O)N2C[C@H](F)C[C@H]2C(=O)Nc2cccc(Cl)c2C(F)(F)F)c2ccc(-c3ccnnc3)cc12` [Compound 126, (2S,4R)-1-(2-(3-acetyl-5-(pyridazin-4-yl)-1H-indol-1-yl)acetyl)-N-(3-chloro-2-(trifluoromethyl)phenyl)-4-fluoropyrrolidine-2-carboxamide] is greater than 10000 nM; for `CC(=O)c1cn(CC(=O)N2C[C@H](F)C[C@H]2C(=O)Nc2cncc(Br)n2)c2ccc(-c3ccnnc3)cc12` [Compound 127, (2S,4R)-1-(2-(3-acetyl-5-(pyridazin-4-yl)-1H-indol-1-yl)acetyl)-N-(6-bromopyrazin-2-yl)-4-fluoropyrrolidine-2-carboxamide] it is less than 1000 nM.
Regarding `NC(=O)c1nn(CC(=O)N2C[C@H](F)C[C@H]2C(=O)Nc2cncc(Br)n2)c2ccc(-c3ccnnc3)cc12` [Compound 128, 1-(2-((2S,4R)-2-(6-bromopyrazin-2-ylcarbamoyl)-4-fluoropyrrolidin-1-yl)-2-oxoethyl)-5-(pyridazin-4-yl)-1H-indazole-3-carboxamide], the half-inhibitory concentration (IC50) is less than 1000 nM.
For `NC(=O)c1nn(CC(=O)N2C[C@H](F)C[C@H]2C(=O)Nc2ccc3ccccc3c2)c2ccc(-c3ccnnc3)cc12` [Compound 131, 1-(2-((2S,4R)-4-fluoro-2-(naphthalen-2-ylcarbamoyl)pyrrolidin-1-yl)-2-oxoethyl)-5-(pyridazin-4-yl)-1H-indazole-3-carboxamide], the IC50 is greater than 10000 nM.
On the same count and under the same terms, the result for `CC(=O)c1cn(CC(=O)N2[C@@H]3C[C@@H]3C[C@H]2C(=O)Nc2cccc(Br)n2)c2ccc(-c3cnc(C)nc3)cc12` [Compound 132, (1R,3S,5R)-2-(2-(3-acetyl-5-(2-methylpyrimidin-5-yl)-1H-indol-1-yl)acetyl)-N-(6-bromopyridin-2-yl)-2-azabicyclo[3.1.0] hexane-3-carboxamide] reads less than 1000 nM; that for `CC(=O)c1cn(CC(=O)N2[C@@H]3C[C@@H]3C[C@H]2C(=O)Nc2cccc(-c3ccccc3Cl)c2F)c2ccc(-c3cnc(C)nc3)cc12` [Compound 133, (1R,3S,5R)-2-(2-(3-acetyl-5-(2-methylpyrimidin-5-yl)-1H-indol-1-yl)acetyl)-N-(2′-chloro-2-fluorobiphenyl-3-yl)-2-azabicyclo[3.1.0] hexane-3-carboxamide], less than 1000 nM.
Consider `CC(=O)c1cn(CC(=O)N2[C@@H]3C[C@@H]3C[C@H]2C(=O)NCc2cccc(Cl)c2F)c2ccc(-c3cnc(C)nc3)cc12` [Compound 134, (1R,3S,5R)-2-(2-(3-acetyl-5-(2-methylpyrimidin-5-yl)-1H-indol-1-yl)acetyl)-N-(3-chloro-2-fluorobenzyl)-2-azabicyclo[3.1.0] hexane-3-carboxamide], for which the IC50 was less than 1000 nM.
The same measure, in the same setting: the result for `CC(=O)c1cn(CC(=O)N2C[C@H](F)C[C@H]2C(=O)NCc2cccc(Cl)c2F)c2ccc(-c3cnc(C)nc3)cc12` [Compound 135, (2S,4R)-1-(2-(3-acetyl-5-(2-methylpyrimidin-5-yl)-1H-indol-1-yl)acetyl)-N-(3-chloro-2-fluorobenzyl)-4-fluoropyrrolidine-2-carboxamide] reads less than 1000 nM; that for `COc1ncc(-c2ccc3c(c2)c(C(C)=O)cn3CC(=O)N2C[C@H](F)C[C@H]2C(=O)NCc2cccc(Cl)c2F)cn1` [Compound 136, (2S,4R)-1-(2-(3-acetyl-5-(2-methoxypyrimidin-5-yl)-1H-indol-1-yl)acetyl)-N-(3-chloro-2-fluorobenzyl)-4-fluoropyrrolidine-2-carboxamide], less than 1000 nM; that for `CC(=O)c1cn(CC(=O)N2C[C@H](F)C[C@H]2C(=O)Nc2cccc(Cl)n2)c2ccc(-c3cnc(C)nc3)cc12` [Compound 137, (2S,4R)-1-(2-(3-acetyl-5-(2-methylpyrimidin-5-yl)-1H-indol-1-yl)acetyl)-N-(6-chloropyridin-2-yl)-4-fluoropyrrolidine-2-carboxamide], less than 1000 nM.
For the compound `CC(=O)Nc1ncc(-c2ccc3c(c2)c(C(C)=O)cn3CC(=O)N2C[C@H](F)C[C@H]2C(=O)Nc2cccc(-c3ccccc3Cl)c2F)cn1` [Compound 138, (2S,4R)-1-(2-(5-(2-acetamidopyrimidin-5-yl)-3-acetyl-1H-indol-1-yl)acetyl)-N-(2′-chloro-2-fluorobiphenyl-3-yl)-4-fluoropyrrolidine-2-carboxamide], the IC50 was less than 1000 nM.
Still for that read-out and setting: the result for `Cn1cc(N2CCCC(NC(=O)[C@@H]3C[C@@H](F)CN3C(=O)Cn3nc(C(N)=O)c4cc(-c5ccnnc5)ccc43)C2)cn1` (stereo partly drawn) [Compound 141, 1-(2-((2S,4R)-4-fluoro-2-(1-(1-methyl-1H-pyrazol-4-yl)piperidin-3-ylcarbamoyl)pyrrolidin-1-yl)-2-oxoethyl)-5-(pyridazin-4-yl)-1H-indazole-3-carboxamide] reads greater than 10000 nM; that for `CC(=O)c1cn(CC(=O)N2C[C@H](F)C[C@H]2C(=O)N[C@@H]2CCC[C@H]2O)c2ccc(-c3ccnnc3)cc12` [Compound 143, (2S,4R)-1-(2-(3-acetyl-5-(pyridazin-4-yl)-1H-indol-1-yl)acetyl)-4-fluoro-N-((1R,2R)-2-hydroxycyclopentyl) pyrrolidine-2-carboxamide], greater than 10000 nM; that for `CC(=O)c1cn(CC(=O)N2C[C@H](F)C[C@H]2C(=O)Nc2cccc(O)n2)c2ccc(-c3ccnnc3)cc12` [Compound 144, (2S,4R)-1-(2-(3-acetyl-5-(pyridazin-4-yl)-1H-indol-1-yl)acetyl)-4-fluoro-N-(6-hydroxypyridin-2-yl)pyrrolidine-2-carboxamide], greater than 10000 nM.
`NC(=O)c1nn(CC(=O)N2C[C@H](F)C[C@H]2C(=O)N[C@@H]2CCC[C@H]2O)c2ccc(-c3ccnnc3)cc12` [Compound 145, 1-(2-((2S,4R)-4-fluoro-2-((1R,2R)-2-hydroxycyclopentylcarbamoyl)pyrrolidin-1-yl)-2-oxoethyl)-5-(pyridazin-4-yl)-1H-indazole-3-carboxamide]: the IC50 was greater than 10000 nM.
On the same count and under the same terms, the figure for `NC(=O)c1nn(CC(=O)N2C[C@H](F)C[C@H]2C(=O)Nc2nc(-c3cccc(Cl)c3)ns2)c2ccc(-c3ccnnc3)cc12` [Compound 146, 1-(2-((2S,4R)-2-(3-(3-chlorophenyl)-1,2,4-thiadiazol-5-ylcarbamoyl)-4-fluoropyrrolidin-1-yl)-2-oxoethyl)-5-(pyridazin-4-yl)-1H-indazole-3-carboxamide] is greater than 10000 nM.
